Drawing on patent US20060217360A1, “Tubulysin biosynthesis gene” (priority 2002, published 2006), this text covers Inhibition zone and IC50 for three molecules.

What all share (type): cell-based
Test [1] has as its system Aspergillus niger. Nature of the test: Agar diffusion test, spectrum of action on fungi. Conditions: 20 μg per test disc of 6 mm diameter. For orientation: Agar diffusion results depend on both activity and mobility in agar.
Test [2] deals with Coprinus cinereus. Nature of the test: Agar diffusion test, spectrum of action on fungi. Conditions: 20 μg per test disc of 6 mm diameter.
Test [3] concerns Pythinum debaryanum. The experiment in a line: Agar diffusion test, spectrum of action on fungi. Conditions: 20 μg per test disc of 6 mm diameter.
Test [4] relates to Pt K2, Potorous tridactylis (ATCC CCL 56). The experiment in a line: Cytostatic action on animal cell line.
Test [5] has as its system KB-3-1 (DSM ACC 158). The experiment in a line: Cytostatic action on human cancer cell line. Conditions: KB-3-1 human cancer cell line.
Test [6] deals with K-562 (ATCC CCL 243). The experiment in a line: Cytostatic action on human cancer cell line. Conditions: K-562 human cancer cell line.
The test system of test [7] is HL-60 (ATCC-CCL 240). The experiment in a line: Cytostatic action on human cancer cell line. The settings on record: HL-60 human cancer cell line.
Test [8] deals with Botrytis cineria. The experiment in a line: Agar diffusion test, spectrum of action on fungi. The settings on record: 20 μg per test disc of 6 mm diameter.
Test [9] has as its system L929, mouse (ATCC CCL1). Nature of the test: Cytostatic action on animal cell line.

Converted amounts (≈) assume the structure as drawn.

For orientation: IC50 means the midpoint of a concentration-inhibition curve. High values mean weaker potency, low ones greater potency.

In the case of `CC[C@H](C)[C@H](NC(=O)[C@H]1CCCCN1C)C(=O)N(COC(=O)CC(C)C)[C@H](C[C@@H](OC(C)=O)c1nc(C(=O)N[C@@H](Cc2ccc(O)cc2)C[C@H](C)C(=O)O)cs1)C(C)C` [Tubulysin A], the Inhibition zone in test [1] is 20 mm; in test [2], 20 mm; in test [3] it was 20 mm; in test [8], 23 mm. Besides, the IC50 was determined as 0.2 ng/mL (≈ 0.237 nM) in test [4]; 0.01 ng/mL (≈ 0.0118 nM) in test [5]; 0.1 ng/mL (≈ 0.118 nM) in test [6]; 0.04 ng/mL (≈ 0.0474 nM) in test [7]; 0.2 ng/mL (≈ 0.237 nM) in test [9].
`CCCC(=O)OCN(C(=O)[C@@H](NC(=O)[C@H]1CCCCN1C)[C@@H](C)CC)[C@H](C[C@@H](OC(C)=O)c1nc(C(=O)N[C@@H](Cc2ccc(O)cc2)C[C@H](C)C(=O)O)cs1)C(C)C` [Tubulysin B]: the Inhibition zone in [1] and in [8] was 18 mm throughout. Moreover, the 50% inhibitory concentration (IC50) in [4] came out at 0.2 ng/mL (≈ 0.241 nM); in test [5] it was 0.02 ng/mL (≈ 0.0241 nM); in [6], 0.2 ng/mL (≈ 0.241 nM); in test [7], 0.08 ng/mL (≈ 0.0964 nM); in test [9], 0.4 ng/mL (≈ 0.482 nM).
Consider `CCC(=O)OCN(C(=O)[C@@H](NC(=O)[C@H]1CCCCN1C)[C@@H](C)CC)[C@H](C[C@@H](OC(C)=O)c1nc(C(=O)N[C@@H](Cc2ccc(O)cc2)C[C@H](C)C(=O)O)cs1)C(C)C` [Tubulysin C], for which the 50% inhibitory concentration (IC50) in test [4] was found to be 2 ng/mL (≈ 2.45 nM); in [5], 0.1 ng/mL (≈ 0.123 nM); in [6], 1.5 ng/mL (≈ 1.84 nM); in test [7] it was 0.4 ng/mL (≈ 0.49 nM); in test [9], 2 ng/mL (≈ 2.45 nM).
